Data from PubChem BioAssay AID256 (DTP/NCI, 2004).
Where “and” joins values, the source holds several entries; their conditions need not be identical. Equal entries are not always repeated. Inconclusive results and toxic doses are left out.

Test system: CD2F1 mice, L1210 leukemia ip, survival T/C
Test: NCI In Vivo Anticancer Drug Screen. Data for tumor model L1210 Leukemia (intraperitoneal) in CD2F1 (CDF1) mice
Details: higher = longer survival
Method in brief: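 Mice carrying a transplanted tumor received test compound or vehicle alone. The value is the measurement in the treated group divided by that in the vehicle-treated control group.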

[1] = endpoint: mean survival time, dose: 100.0 mg/kg/injection, schedule: Q01DX009 (ip), vehicle: saline with Tween-80
[2] = endpoint: mean survival time, dose: 200.0 mg/kg/injection, schedule: Q01DX009 (ip), vehicle: saline with Tween-80
[3] = endpoint: mean survival time, dose: 100.0 mg/kg/injection, schedule: Q01DX001 (ip), vehicle: saline with Tween-80
[4] = endpoint: mean survival time, dose: 200.0 mg/kg/injection, schedule: Q01DX001 (ip), vehicle: saline with Tween-80
[5] = endpoint: mean survival time, dose: 400.0 mg/kg/injection, schedule: Q01DX001 (ip), vehicle: saline with Tween-80
[6] = endpoint: mean survival time, dose: 400.0 mg/kg/injection, schedule: Q01DX009 (ip), vehicle: saline with Tween-80

Compound: C=C(CN(C)C)c1ccccn1
- T/C (endpoint: mean survival time, dose: 75.0 mg/kg/injection, schedule: Q01DX001 (ip), vehicle: other): 100 % of control

Compound: Clc1ccccc1N=Cc1ccc2c(c1)OCO2
- T/C (endpoint: mean survival time, dose: 100.0 mg/kg/injection, schedule: Q01DX009 (ip), vehicle: Klucel (hydroxypropylcellulose) (HPC)): 105 % of control
- T/C (endpoint: mean survival time, dose: 100.0 mg/kg/injection, schedule: Q04DX003 (ip), vehicle: alcohol): 103 % of control
- T/C (endpoint: mean survival time, dose: 200.0 mg/kg/injection, schedule: Q01DX009 (ip), vehicle: Klucel (hydroxypropylcellulose) (HPC)): 100 % of control
- T/C (endpoint: mean survival time, dose: 200.0 mg/kg/injection, schedule: Q04DX003 (ip), vehicle: alcohol): 109 % of control
- T/C (endpoint: mean survival time, dose: 400.0 mg/kg/injection, schedule: Q01DX009 (ip), vehicle: Klucel (hydroxypropylcellulose) (HPC)): 100 % of control
- T/C (endpoint: mean survival time, dose: 400.0 mg/kg/injection, schedule: Q04DX003 (ip), vehicle: alcohol): 105 % of control

Compound: CCCCCCC(C/C=C\CCCCCCCC(=O)OC)OC(C)=O (centres undefined)
- T/C (endpoint: mean survival time, dose: 100.0 mg/kg/injection, schedule: Q04DX003 (ip), vehicle: saline with Tween-80): 101 % of control
- T/C (endpoint: mean survival time, dose: 200.0 mg/kg/injection, schedule: Q04DX003 (ip), vehicle: saline with Tween-80): 101 % of control
- T/C (endpoint: mean survival time, dose: 400.0 mg/kg/injection, schedule: Q04DX003 (ip), vehicle: saline with Tween-80): 97 % of control

Compound: CC1(C)CN1P(=S)(N1CC1(C)C)N1CC1(C)C (centres undefined)
- T/C (endpoint: mean survival time, dose: 338.0 mg/kg/injection, schedule: Q01DX001 (ip), vehicle: other): 190 % of control and 277 % of control

Compound: CN=C(N)N/N=C(\C)c1ccc2c(c1)Cc1ccccc1-2
- T/C (endpoint: mean survival time, dose: 12.5 mg/kg/injection, schedule: Q01DX009 (ip), vehicle: saline with Tween-80): 102 % of control
- T/C (endpoint: mean survival time, dose: 25.0 mg/kg/injection, schedule: Q01DX009 (ip), vehicle: saline with Tween-80): 105 % of control
- T/C (endpoint: mean survival time, dose: 50.0 mg/kg/injection, schedule: Q01DX009 (ip), vehicle: saline with Tween-80): 108 % of control
- T/C [1]: 97 % of control
- T/C [2]: 91 % of control
- T/C (endpoint: median survival time, dose: 12.5 mg/kg/injection, schedule: Q01DX009 (ip), vehicle: saline with Tween-80): 101 % of control
- T/C (endpoint: median survival time, dose: 25.0 mg/kg/injection, schedule: Q01DX009 (ip), vehicle: saline with Tween-80): 106 % of control
- T/C (endpoint: median survival time, dose: 50.0 mg/kg/injection, schedule: Q01DX009 (ip), vehicle: saline with Tween-80): 103 % of control
- T/C (endpoint: median survival time, dose: 100.0 mg/kg/injection, schedule: Q01DX009 (ip), vehicle: saline with Tween-80): 101 % of control
- T/C (endpoint: median survival time, dose: 200.0 mg/kg/injection, schedule: Q01DX009 (ip), vehicle: saline with Tween-80): 106 % of control

Compound: COc1cc(NC(=O)Nc2cccc(Cl)c2)c(OC)cc1Cl
- T/C (endpoint: mean survival time, dose: 100.0 mg/kg/injection, schedule: Q04DX002 (ip), vehicle: saline with Tween-80): 94 % of control
- T/C (endpoint: mean survival time, dose: 400.0 mg/kg/injection, schedule: Q04DX002 (ip), vehicle: saline with Tween-80): 91 % of control

Compound: CCS(=O)(=O)C(C)S(=O)(=O)CC
- T/C [3]: 100 % of control
- T/C [4]: 107 % of control
- T/C [5]: 104 % of control

Compound: O=C(O)C(O)c1ccccc1 (centres undefined)
- T/C (endpoint: mean survival time, dose: 100.0 mg/kg/injection, schedule: Q04DX002 (ip), vehicle: saline): 101 % of control
- T/C (endpoint: mean survival time, dose: 200.0 mg/kg/injection, schedule: Q04DX002 (ip), vehicle: saline): 114 % of control

Compound: Cc1ccc(S(=O)(=O)OCC(C)C)cc1
- T/C [1]: 101 % of control
- T/C [2]: 101 % of control
- T/C [6]: 98 % of control

Compound: c1csc(CCc2nc3ccccc3o2)c1
- T/C [3]: 103 % of control
- T/C [1]: 93 % of control
- T/C [4]: 98 % of control
- T/C [2]: 97 % of control
- T/C [5]: 112 % of control
- T/C [6]: 93 % of control

Compound: O=C(OCC1OC(n2nc(SCc3ccccc3)c(=S)[nH]c2=O)C(OC(=O)c2ccccc2)C1OC(=O)c1ccccc1)c1ccccc1 (centres undefined)
- T/C (endpoint: mean survival time, dose: 12.5 mg/kg/injection, schedule: Q01DX005 (ip), vehicle: distilled water + Tween-80): 101 % of control
- T/C (endpoint: mean survival time, dose: 25.0 mg/kg/injection, schedule: Q01DX005 (ip), vehicle: distilled water + Tween-80): 95 % of control
- T/C (endpoint: mean survival time, dose: 50.0 mg/kg/injection, schedule: Q01DX005 (ip), vehicle: distilled water + Tween-80): 102 % of control
- T/C (endpoint: mean survival time, dose: 100.0 mg/kg/injection, schedule: Q01DX005 (ip), vehicle: distilled water + Tween-80): 93 % of control
- T/C (endpoint: mean survival time, dose: 200.0 mg/kg/injection, schedule: Q01DX005 (ip), vehicle: distilled water + Tween-80): 95 % of control

Compound: COc1cc2cc[n+]3c(C)c4ccc(OC)c(OC)c4cc3c2cc1OC (tested in a mixture with another compound)
- T/C (endpoint: mean survival time, dose: 5.0 mg/kg/injection, schedule: Q01DX009 (ip), vehicle: saline): 108 % of control
- T/C (endpoint: mean survival time, dose: 60.0 mg/kg/injection, schedule: Q01DX009 (ip), vehicle: saline): 121 % of control
